Source: patent US20050163831A1, “Patch for transdermal administration” (Hisamitsu Pharmaceutical Co., Inc., priority 2002, published 2005)

What was measured:
[1] = permeability test through hairless mouse skin (flow-through cell); assay type: in vitro ADME; details: for maximum value of the permeability rate of the drug per unit area of the skin, base agent Acetone: 1% (w/v) solution in acetone as donor; for maximum value of the permeability rate of the drug per unit area of the skin, base agent Acetone / maximum value of the permeability rate of the drug per unit area of the skin, base agent IPM / maximum value of the permeability rate of the drug per unit area of the skin, base agent Liquid paraffin / maximum value of the permeability rate of the drug per unit area of the skin, base agent PG: extirpated hairless mouse dorsal skin, 37° C., up to 24 hours; for maximum value of the permeability rate of the drug per unit area of the skin, base agent IPM: saturated solution in isopropyl myristate (IPM) as donor; for maximum value of the permeability rate of the drug per unit area of the skin, base agent Liquid paraffin: saturated solution in liquid paraffin as donor; for maximum value of the permeability rate of the drug per unit area of the skin, base agent PG: saturated solution in propylene glycol (PG) as donor
Protocol: Preliminary Test 1 (permeability test through hairless mouse skin)
A permeability test through hairless mouse skin was conducted for the following 1-12 test solutions:
First, dorsal skin of a hairless mouse was extirpated, which was set to a flow-through cell (effective area: 1 cm^2) with facing the dermis side to the receptor side, where a water of 37° C. was circulating the periphery of the cell. Next, 1 mL of Test solution 1 was charged in a cell on the stratum corneum side of the skin as a donor solution. While using a mixed solution of 40% (v/v) polyethylene glycol 400/physiological saline as a receptor layer, sampling of the receptor solution was carried out at a speed of 5 mL/hour every 2 hours up to 24 hours. For receptor solutions obtained at respective times, the flow volume was measured precisely and the drug concentration was measured by using high-performance liquid chromatography. From the obtained measurement values of the flow volume and drug concentration, the permeability rate per 1 hour was calculated to obtain the maximum value of the permeability rate of the drug per unit area of the skin.

[2] = system: yeast-induced paw inflammation and nociception; test: yeast-induced paw inflammation and nociception test in rats; assay type: in vivo; details: 100 μL of 3% (w/v) solution in acetone applied to footpad for 3 hours; measured 3 hours after yeast injection; p<0.01 vs control
Description: Preliminary Test 2 (yeast-induced paw inflammation and nociception test in rats) First, SD male rats with weight of around 130 g were used to measure a pain threshold value (g) by using analgesimeter (Analgesy 7200, Ugo Basile) according to the method of Randall & […]. and […] method for measurement of analgesic activity on inflamed tissue. (1957) Arch. Int. Pharmacodyn. 4, 409-419], while defining removal reaction against pressure irritation to a right hind footpad as the index, and they were grouped such that there was no difference between the average pain threshold values of both groups. […] On the other hand, acetone was applied to the control group. After sufficient drying after the application, the rats were housed in separate cages without covering treatment. At this time, for the purpose of preventing oral drug intake, a collar was attached to all the rats including the control group. After 3 hours from the application described above, valdecoxib remaining at the applied site was wiped off with absorbent cotton having been dipped in slightly warm water and, immediately after the wipe, each 100 μL of a yeast suspension (20% Baker's Yeast) was injected subcutaneously to all the rats including the control group to induce inflammation. […] The obtained results are illustrated in FIG. 1.

[3] = system: carrageenin-induced paw edema; test: carrageenin-induced paw edema test in rats; assay type: in vivo; details: 100 μL of 3% (w/v) solution in acetone applied to footpad for 3 hours; measured 3 hours after carrageenin; p<0.01 vs control
Description: Preliminary Test 3 (carrageenin-induced paw edema test in rats)
First, SD male rats with weight of around 110 g were used to measure a paw volume (mL) of a right hind footpad by using a water-replacement type paw volume determining device (Model TK-101 CMP, MUROMACHI KIKAI) according to the method of Fujihira et al. [Fujihira Eichi, Screening no Hoho to Mondaiten—Adjuvant Kansetsuen ni yoru Koenshoyaku no Kenteiho (Methods and Problems of Screening—Assay of Antiinflammatory Agent by Adjuvant Arthritis) (1971) Oyo Yakuri (Pharmacometrics) 5,169-183], and they were grouped such that there was no difference between the average paw volume values of both groups. Next, each 100 μL of a 3% (w/v) solution of valdecoxib in acetone was applied to the right hind footpad. On the other hand, acetone was applied to the control group. After sufficient drying after the application, the rats were housed in separate cages without covering treatment. […] After additional 3 hours, the paw volume at the right hind footpad was measured again to calculate an edema ratio (%) according to the following edema ratio calculation method (calculation formula): Edema ratio (%)=[(paw volume after 3 hours from inflammation (mL)−paw volume at ordinary time (mL))/paw volume at ordinary time (mL))]×100 to evaluate the antiinflammatory effect of valdecoxib. […]

maximum value of the permeability rate of the drug per unit area of the skin, base agent Acetone [1]	maximum value of the permeability rate of the drug per unit area of the skin, base agent IPM [1]	maximum value of the permeability rate of the drug per unit area of the skin, base agent Liquid paraffin [1]	maximum value of the permeability rate of the drug per unit area of the skin, base agent PG [1]	skin permeability (in words) ([1]; compared with celecoxib and rofecoxib, Table 1)	SMILES	analgesic action (pain threshold value at right hind footpad, FIG. 1) [2]	antiinflammatory action (edema ratio, FIG. 2) [3]
0.09 μg/cm^2/hr	0.00 μg/cm^2/hr	0.00 μg/cm^2/hr	0.00 μg/cm^2/hr		CS(=O)(=O)c1ccc(C2=C(c3ccccc3)C(=O)OC2)cc1 [rofecoxib, 3-phenyl-4-(4-methylsulfonylphenyl)-2(5H)-furanone]		
0.3 μg/cm^2/hr	2.04 μg/cm^2/hr	0.00 μg/cm^2/hr	0.90 μg/cm^2/hr		Cc1ccc(-c2cc(C(F)(F)F)nn2-c2ccc(S(N)(=O)=O)cc2)cc1 [celecoxib, 4-[5-(4-methylphenyl)-3-(trifluoromethyl)pyrazole-1-yl]benzolsulfonamide]		
0.59 μg/cm^2/hr	2.97 μg/cm^2/hr	0.41 μg/cm^2/hr	4.10 μg/cm^2/hr	very high skin permeability	Cc1onc(-c2ccccc2)c1-c1ccc(S(N)(=O)=O)cc1 [valdecoxib, 4-(5-methyl-3-phenylisoxazole-4-yl)benzenesulfonamide]	significant analgesic action	significant antiinflammatory action
